Type in all cases: biochemical
Conditions in all cases: Adjusted for Plasma Protein Binding

One assay concerns the target MMP-3 (Homo sapiens, UniProt P08254). Kind of assay: Concentration for 50% enzyme inhibition, MMP-3.
The target in a further assay is T1, MMP-2 (Homo sapiens, UniProt P08253).
T1 sequence (P08253 110-660): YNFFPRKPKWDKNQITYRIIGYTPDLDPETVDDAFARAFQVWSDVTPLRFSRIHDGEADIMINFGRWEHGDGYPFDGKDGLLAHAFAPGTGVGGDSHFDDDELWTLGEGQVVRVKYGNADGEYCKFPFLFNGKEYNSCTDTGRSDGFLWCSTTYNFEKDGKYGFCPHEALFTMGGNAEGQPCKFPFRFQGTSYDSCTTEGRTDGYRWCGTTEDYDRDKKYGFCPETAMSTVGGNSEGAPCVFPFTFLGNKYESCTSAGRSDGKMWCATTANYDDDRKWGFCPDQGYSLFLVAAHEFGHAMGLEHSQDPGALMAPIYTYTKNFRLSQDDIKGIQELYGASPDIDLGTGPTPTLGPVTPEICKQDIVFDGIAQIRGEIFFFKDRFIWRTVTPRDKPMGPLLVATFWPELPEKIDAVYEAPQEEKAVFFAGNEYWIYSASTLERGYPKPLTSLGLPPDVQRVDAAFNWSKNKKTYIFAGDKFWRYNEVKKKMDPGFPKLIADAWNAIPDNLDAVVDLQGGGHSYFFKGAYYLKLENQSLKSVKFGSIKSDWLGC
The assay is described as follows: Concentration for 50% enzyme inhibition, MMP-2.

The target in another assay is MMP-9 (Homo sapiens, UniProt P14780). Kind of assay: Concentration for 50% enzyme inhibition, MMP-9. An excerpt: (§1) The solubility range to achieve efficacious doses without adverse effects for a range of protease inhibitors is shown in Table 1.
Sequence of MMP-9 (P14780 94-707, species assumed): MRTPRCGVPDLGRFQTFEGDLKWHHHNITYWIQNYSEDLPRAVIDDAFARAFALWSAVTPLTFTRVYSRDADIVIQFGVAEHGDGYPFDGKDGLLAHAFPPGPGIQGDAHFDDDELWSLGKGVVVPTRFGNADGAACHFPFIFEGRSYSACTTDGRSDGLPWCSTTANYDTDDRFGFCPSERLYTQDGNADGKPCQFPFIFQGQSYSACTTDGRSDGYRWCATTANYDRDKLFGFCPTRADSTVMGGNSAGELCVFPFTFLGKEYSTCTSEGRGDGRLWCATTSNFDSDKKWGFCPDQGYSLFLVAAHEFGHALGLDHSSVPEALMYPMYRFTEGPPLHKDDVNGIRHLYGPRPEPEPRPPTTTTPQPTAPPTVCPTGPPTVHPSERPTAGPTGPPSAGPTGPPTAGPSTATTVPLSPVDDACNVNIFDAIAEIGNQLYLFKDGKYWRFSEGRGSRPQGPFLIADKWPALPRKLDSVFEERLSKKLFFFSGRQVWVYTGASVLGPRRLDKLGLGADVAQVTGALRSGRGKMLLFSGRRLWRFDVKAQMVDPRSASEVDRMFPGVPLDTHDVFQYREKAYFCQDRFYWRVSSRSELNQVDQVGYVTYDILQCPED
The next assay concerns the target MMP-14 (Homo sapiens, UniProt P50281). Kind of assay: Concentration for 50% enzyme inhibition, MMP-14.
The target of the next assay is uPA (Homo sapiens, UniProt P00749). Kind of assay: Concentration for 50% enzyme inhibition, uPA.
For another assay, the target named is TPA (Homo sapiens, UniProt P00750). The assay is described as follows: Concentration for 50% enzyme inhibition, TPA.
Sequence of TPA (P00750 36-562, species assumed): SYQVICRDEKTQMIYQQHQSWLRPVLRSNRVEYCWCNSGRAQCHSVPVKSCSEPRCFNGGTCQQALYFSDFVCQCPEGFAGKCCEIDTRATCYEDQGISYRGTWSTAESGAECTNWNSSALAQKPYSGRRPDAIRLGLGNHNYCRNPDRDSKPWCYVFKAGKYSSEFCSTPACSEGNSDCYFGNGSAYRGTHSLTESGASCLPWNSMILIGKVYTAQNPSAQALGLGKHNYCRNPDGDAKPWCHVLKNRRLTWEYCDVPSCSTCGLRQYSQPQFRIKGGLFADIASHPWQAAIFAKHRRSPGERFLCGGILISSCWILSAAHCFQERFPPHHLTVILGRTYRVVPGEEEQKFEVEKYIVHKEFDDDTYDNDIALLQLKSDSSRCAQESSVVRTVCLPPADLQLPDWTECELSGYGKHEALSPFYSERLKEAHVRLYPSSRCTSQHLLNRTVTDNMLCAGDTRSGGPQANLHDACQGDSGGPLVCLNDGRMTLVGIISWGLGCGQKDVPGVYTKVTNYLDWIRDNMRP
Source text: as §1

The target in another assay is Plasmin (Homo sapiens, UniProt P00747). Kind of assay: Concentration for 50% enzyme inhibition, Plasmin.
Sequence of Plasmin (P00747 581-810 limits assumed, species assumed): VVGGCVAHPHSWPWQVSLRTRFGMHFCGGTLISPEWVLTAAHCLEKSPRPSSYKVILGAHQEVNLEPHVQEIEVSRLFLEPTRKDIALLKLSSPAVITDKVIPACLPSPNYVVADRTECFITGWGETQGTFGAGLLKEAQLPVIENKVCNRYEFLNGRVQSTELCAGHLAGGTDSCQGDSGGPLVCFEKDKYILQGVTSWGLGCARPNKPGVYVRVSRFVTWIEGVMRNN
Sequence of Plasmin (P00747 97-580 partner limits assumed, species assumed): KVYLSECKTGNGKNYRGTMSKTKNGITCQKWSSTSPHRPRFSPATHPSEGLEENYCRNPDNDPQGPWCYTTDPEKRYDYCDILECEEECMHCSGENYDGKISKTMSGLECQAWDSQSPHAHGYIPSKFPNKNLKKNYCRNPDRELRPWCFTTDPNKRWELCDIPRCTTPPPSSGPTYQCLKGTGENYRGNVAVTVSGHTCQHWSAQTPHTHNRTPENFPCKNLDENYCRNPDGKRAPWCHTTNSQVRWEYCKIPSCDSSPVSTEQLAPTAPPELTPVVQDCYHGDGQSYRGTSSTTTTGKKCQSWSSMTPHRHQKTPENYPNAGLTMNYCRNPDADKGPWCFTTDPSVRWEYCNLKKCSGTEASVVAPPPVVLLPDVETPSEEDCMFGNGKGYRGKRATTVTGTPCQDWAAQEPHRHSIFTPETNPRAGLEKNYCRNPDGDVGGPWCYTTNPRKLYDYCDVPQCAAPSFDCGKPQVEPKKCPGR
Source text: as §1

A value given as a limit tells only on which side of the number the result lay.

Sequence of MMP-3 (P08254 100-477, species assumed): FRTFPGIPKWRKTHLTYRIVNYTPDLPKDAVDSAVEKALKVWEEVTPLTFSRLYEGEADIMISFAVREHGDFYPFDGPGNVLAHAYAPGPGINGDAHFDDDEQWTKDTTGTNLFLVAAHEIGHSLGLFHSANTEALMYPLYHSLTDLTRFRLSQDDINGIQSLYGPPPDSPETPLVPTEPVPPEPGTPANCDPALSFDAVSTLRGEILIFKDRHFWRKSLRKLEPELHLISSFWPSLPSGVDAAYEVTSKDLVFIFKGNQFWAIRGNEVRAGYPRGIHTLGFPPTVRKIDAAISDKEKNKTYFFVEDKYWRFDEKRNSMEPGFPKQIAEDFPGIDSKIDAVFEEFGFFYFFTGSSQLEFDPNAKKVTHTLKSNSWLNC

One may read the IC50 as the concentration at which inhibition is half-maximal. Low readings indicate greater potency, high ones weaker potency. For `COC[C@@H](NC(=O)[C@@H](NC(=O)[C@H](CCCc1ccc(-c2ccccc2)c(C)c1)CC(=O)O)C(C)(C)C)c1ccccc1` [A, (3R)-3-({[(1S)-2,2-Dimethyl-1-({[(1S)-2-methoxy-1-phenylethyl]amino}carbonyl)-propyl]amino}carbonyl)-6-[(3-methyl-4-phenyl)phenyl]hexanoic acid], the IC50 at MMP-3 is 0.0175 mM; on MMP-2, 27.2 mM; on MMP-9, 16.6 mM; at MMP-14 it was 35.6 mM.
As to `NC(N)=Nc1ncc(Cl)c2ccc(-c3cccc(C(=O)O)c3)cc12` [inhibitor X, 3-(4-Chloro-1-guanidino-7-isoquinolyl)benzoic acid], the results for the IC50 at uPA, at TPA and on Plasmin were 0.0117 mM, over 33.2 mM and 33.2 mM, respectively.

The record behind these values is US20030099693A1, “Wafer” (priority 2001, published 2003).
